Earlier results in patent publication US20100029729A1, “COMPOUNDS” (priority 2008, published 2010).

Tests used:
circulating lymphocytes = conditions: animals and man
[1] = clinical studies, first 24 hours of treatment

For `CCCCCCCCc1ccc(CCC(N)(CO)CO)cc1` [FTY720], the “effect on circulating lymphocytes” value (circulating lymphocytes) is given as “reduce circulating lymphocytes in animals and man” and the bradycardia [1] is given as “results in bradycardia in the first 24 hours of treatment”.
